According to US9782424B2, “Synergistic combination comprising avermectins and a NSAID for tumor inhibition” (Ectin Research AB, priority 2011, dated 2017):
Where “and” joins values, the source holds several entries; their conditions need not be identical. Equal entries are not always repeated.

Experiments:
[1] = system: urinary bladder cell line (UM-UC-3); test: XTT-assay proliferation rate, urinary bladder cell line; format: cell-based, human; settings: for Proliferation rate compared to untreated medium control: UM-UC-3 (Table 3); for Proliferation rate in per cent compared to untreated medium control: UM-UC-3
Experimental: (§1) Commercially available human tumor cell lines were purchased from ATCC (ATCC/LGC-standards, Borás, Sweden). […] Briefly, ampoules of frozen cells were thawed by submerging into a 37° C. water bath for 45 s. […] With supernatant discarded, cell pellets were further resuspended with 5 ml complete medium into 25 cm^2 cell culture flasks (Cell+, Sarstedt, Nümbrecht, Germany). Tumor cells were cultured until sub-confluence and further sub-cultured with Trypsin (0.5%), EDTA (0.2%) solution (T4174, TE-10x, Sigma) in sterile sodium chloride. Culture media was changed two-three times a week. Culture flasks (Cell+, Sarstedt, Nümbrecht, Germany) and culture plates (Falcon/BD, Franklin Lakes, N.J., USA) were used for experimental set-ups. Cells were regularly monitored using an inverted microscope connected to a digital photo equipment (Axiovert 25 and Axiovision, Zeiss, Carl Zeiss AG, Germany) (FIG. 1). Described culture techniques and equipment have been used extensively in the laboratory
(§2) The proliferation rates of the different human tumor cell lines were studied using a method based on the conversion of a sodium salt (XTT-assay, Sigma) into a stable orange color that could be analyzed in a spectrophotometer. […] The color change was measured using a 96-well plate reader with software to calculate the absorbance at 450 nm (V-max/Softmax Pro, Molecular Devices, USA).
(§3) Increasing concentrations of substance ivermectin was added with an 8-channel pipette (Titertek, Kem-En-Tec, Taastrup, Denmark) together with sterile pipette tips (Molecular Bioproducts, San Diego, Calif., USA). Cell cultures including active substances were incubated for 24 hours (and 96 hours). Untreated wells including culture medium only served as untreated controls. The XTT-assay substrate was added and after gentle agitation using a micro plate shaker, absorbencies at 450 and 650 nm were measured. Levels from medium were subtracted and compared with control wells, using culture medium only.

[2] = system: breast cell line (ZR-75-1); test: XTT-assay proliferation rate, breast cell line; format: cell-based, human; settings: for Proliferation rate in per cent compared to untreated medium control: 2R-75-1 breast Ca; for Proliferation rate compared to untreated control: ZR-75-1 (Table 6)
Experimental: as §1, §2, §3

[3] = system: urinary bladder cells (UM-UC-3); test: Morphology of cultured tumor cells, UM-UC-3; format: cell-based, human; settings: ivermectin 100 μM, 24 hours (FIG. 6)
Experimental: (§4) Commercially available human tumor cell lines were purchased from ATCC (ATCC/LGC-standards, Borás, Sweden). Cell lines from urinary bladder (UM-UC-3, #CRL-1749), colorectal carcinoma (Colo205, #CCL-222 and HT29, #HTB-38), prostate carcinoma (LNCaP, #CRL-1740) and breast carcinoma (ZR-75-1, #CRL-1500) were purchased and stored in liquid nitrogen. Cells were cultured in Roswell Park Memorial Institute media (RPMI-1640) or minimum essential medium with Earl's salts (EMEM) supplemented with 10% Foetal calf serum (FCS, Sigma) and cultured using a 37° C. cell culture incubator (Forma Scientific, NinoLab, Kungsbacka, Sweden) with 5% CO2 humidified atmosphere. Tumor cell lines were handled aseptically using a laminar airflow (LAF) bench (Holten 2448, Ninolab, Sweden) and stored in a liquid nitrogen tank and were initiated in culture as previously described (Falk P. Experimental models of the peritoneal environment: Effects of TGF-beta and Hyaluronan. Göteborg: University of Gothenburg; 2008). Briefly, ampoules of frozen cells were thawed by submerging into a 37° C. water bath for 45 s. Cells were resuspended in 10 ml of preheated RPMI-1640 with 10% FCS and centrifuged in 260 g for 10 min. […] Cells were regularly monitored using an inverted microscope connected to a digital photo equipment (Axiovert 25 and Axiovision, Zeiss, Carl Zeiss AG, Germany) (FIG. 1). […]

[4] = system: colorectal cells (Colo205); test: Morphology of cultured tumor cells, Colo205; format: cell-based, human
Experimental: as §1
(§5) The effect of Ivermectin, selamectin, abamectin alone, or in combination with ketoconazole, albendazole, ibuprofen, diclofenac and celecoxib on the morphology of cultured human tumor cells was studied. The effect of ivermectin in the presence of increasing concentration of ivermectin was also investigated. Cells were grown into sub-confluence and then sub-cultured into 12 and 24 well plates (Sarstedt, Falcon/BD) for morphology studies, or in 96 well plates (Sarstedt, Falcon/BD) for proliferation studies.

prostate cells (LNCaP) = test: Morphology of cultured tumor cells, LNCaP; format: cell-based, human; settings: for Effect on morphology: 24 hours (FIG. 8)
Experimental: as §1, §5

[5] = system: breast cancer cell line 2R-75-1; test: Morphology of cultured tumor cells, ZR-75-1; format: cell-based, human; settings: ivermectin 10e-4 to 10e-10 mol/L (FIG. 2)
Experimental: as §4

[6] = system: human urinary bladder cancer cells; test: Tryphan blue exclusion viability; format: cell-based; settings: compared to untreated medium control (FIG. 3)
Experimental: as §5, with “studies. Viability of urinary bladder cells was studied using the tryphan blue exclusion method (Freshney R. Culture of animal cells: A manual of basic techniques. New York: Alan R Liss Inc; 1987).” for “studies.”

[7] = ivermectin 10e-4 to 10e-10 mol/L (FIG. 2)

For “22,23-dihydroavermectin B1a+22,23-dihydroavermectin B1b [ivermectin]”, the “Proliferation rate compared to untreated medium control” value ([1]; IVM 1 μmol/L alone) was 99 ± 1%, the “Proliferation rate compared to untreated medium control” value ([1]; IVM 10 μmol/L alone) was 105 ± 3% and the “Proliferation rate compared to untreated medium control” value ([1]; IVM 100 μmol/L alone) was 90±1%. The “Proliferation rate compared to untreated medium control” value ([1]; IVM 100 μmol/L alone, listed as IVM) was 90 ± 1%, the “Proliferation rate in per cent compared to untreated medium control” value ([1]; ivermectin 10e-9 mol/L) was 100 ± 3% and the “Proliferation rate in per cent compared to untreated medium control” value ([1]; ivermectin 10e-8 mol/L) was 96 ± 5%. The “Proliferation rate in per cent compared to untreated medium control” value ([1]; ivermectin 10e-7 mol/L) was 95 ± 9%, the “Proliferation rate in per cent compared to untreated medium control” value ([1]; ivermectin 10e-6 mol/L) was 91 ± 3% and the “Proliferation rate in per cent compared to untreated medium control” value ([1]; ivermectin 10e-5 mol/L) was 34±8% and 34 ± 6%. The “Proliferation rate in per cent compared to untreated medium control” value ([1]; ivermectin 10e-4 mol/L) was 34±3%, the “Proliferation rate in per cent compared to untreated medium control” value ([2]; ivermectin 10e-9 mol/L) was 114 ± 31% and the “Proliferation rate in per cent compared to untreated medium control” value ([2]; ivermectin 10e-8 mol/L) was 128 ± 30%. For the same substance, the “Proliferation rate in per cent compared to untreated medium control” value ([2]; ivermectin 10e-7 mol/L) was 105 ± 35%, the “Proliferation rate in per cent compared to untreated medium control” value ([2]; ivermectin 10e-6 mol/L) was 95 ± 37% and the “Proliferation rate in per cent compared to untreated medium control” value ([2]; ivermectin 10e-5 mol/L) was 124 ± 34%. For the same substance, the “Proliferation rate in per cent compared to untreated medium control” value ([2]; ivermectin 10e-4 mol/L) was 7±2%, the “Proliferation rate compared to untreated control” value ([2]; IVM 1 μmol/L alone) was 90.0 ± 5.2% and the “Proliferation rate compared to untreated control” value ([2]; IVM 10 μmol/L alone) was 60.5 ± 10.6%. For the same substance, the “Proliferation rate compared to untreated control” value ([2]; IVM 100 μmol/L alone) was 14.4 ± 1.7%, the “Effect on proliferation rate compared to untreated control” value ([2]; ZR-75-1, ivermectin 100 μM alone or in combination) was “reduced the proliferation rate” and the Effect on morphology [3] was “affected”. For the same substance, the Effect on morphology ([4]; ivermectin) was “affected cell structure”, the Effect on morphology ([4]; ivermectin 10 μM) was “no effect” and the “Decreased growth of cells, substances tested alone” value ([4]; ivermectin 10 μM alone, albendazole 20 and 40 μM alone (FIG. 11)) was “not seen”. For the same substance, the “Morphological effects over the concentration series” value [4, 7] was “affected even at 10e-6 mol/L”, the Effect on morphology (prostate cells (LNCaP); ivermectin 100 μM) was “affected” and the “Morphological effects over the concentration series” value (prostate cells (LNCaP); [7]) was “affected by the highest concentration 10e-4 mol/L only”. The Effect on morphology (prostate cells (LNCaP); ivermectin 1 and 10 μM) was “No effect”, the “Morphological effects over the concentration series” value [5] was “affected by the highest concentration 10e-4 mol/L only” and the “Tryphan blue exclusion (viability)” value [6] was “affected cells in a dose-dependent manner”.
